Source: patent US11932658B2 (BRISTOL-MYERS SQUIBB COMPANY, priority 2016, dated 2024)

Key:
PAR1 = target: T1, PAR1 (Homo sapiens, UniProt P25116); conditions: ACS patients, TRACER phase III trial; cited from earlier work
T1 construct: in the TRACER phase III trial in ACS patients; host or cells: ACS patients (clinical trial)
T1 sequence (P25116 22-425): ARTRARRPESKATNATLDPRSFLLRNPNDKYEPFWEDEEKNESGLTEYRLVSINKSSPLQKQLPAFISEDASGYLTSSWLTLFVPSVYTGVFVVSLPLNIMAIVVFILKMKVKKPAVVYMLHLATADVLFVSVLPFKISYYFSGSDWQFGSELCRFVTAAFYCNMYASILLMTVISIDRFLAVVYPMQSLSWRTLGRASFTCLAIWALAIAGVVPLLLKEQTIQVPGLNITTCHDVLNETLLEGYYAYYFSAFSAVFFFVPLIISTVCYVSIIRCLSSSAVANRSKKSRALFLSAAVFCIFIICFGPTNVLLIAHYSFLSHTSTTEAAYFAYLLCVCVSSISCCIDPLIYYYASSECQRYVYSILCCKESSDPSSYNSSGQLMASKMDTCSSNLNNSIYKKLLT

[1] = target: T2, protease-activated receptor type 4 (PAR4) (Homo sapiens, UniProt Q96RI0); conditions: abstract of J. Med. Chem. 44(22):3746-3749 (2001); cited from earlier work
T2 sequence (Q96RI0 18-385): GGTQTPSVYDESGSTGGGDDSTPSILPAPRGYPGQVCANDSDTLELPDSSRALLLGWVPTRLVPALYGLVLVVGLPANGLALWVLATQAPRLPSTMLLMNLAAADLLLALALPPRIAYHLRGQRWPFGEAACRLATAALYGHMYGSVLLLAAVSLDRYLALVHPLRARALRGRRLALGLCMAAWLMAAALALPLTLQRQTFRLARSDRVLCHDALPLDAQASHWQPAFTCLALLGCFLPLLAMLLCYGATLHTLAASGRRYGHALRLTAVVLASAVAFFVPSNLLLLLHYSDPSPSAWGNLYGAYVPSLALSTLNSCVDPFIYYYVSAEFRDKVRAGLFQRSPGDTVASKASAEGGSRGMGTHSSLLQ

PAR4 = target: T3, PAR4 (Homo sapiens, UniProt Q96RI0); assay: PAR4 FLIPR assay (antagonism of agonist peptide-induced calcium mobilization); assay type: cell-based
T3 construct: expressed in transfected cells; host or cells: HEK293 PAR4 Clone 1.2A (BMS Arctic ID 383940)
T3 sequence (Q96RI0 18-385): T2 sequence (Q96RI0 18-385)
In short: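 Antagonism was taken as block of calcium mobilization evoked by the agonist peptide H-Ala-Phe(4-F)-Pro-Gly-Trp-Leu-Val-Lys-Asn-[…]-NH2, added after 30 min room-temperature compound preincubation in dye-loaded PAR4-transfected HEK293 cells (endogenous PAR1). Fluorescence was read on FDSS, with compound addition alone used as the agonist counter-screen; values come from 11-point concentration-response curves.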

washed platelets = test system: washed platelets
Experimental: Human blood was collected in ACD (85 mM tri-sodium citrate, 78 mM citric acid, 110 mM D-glucose, pH 4.4) at a ratio of 1.4 ml per 10 ml blood. PRP was isolated by centrifugation at 170 g for 14 minutes and platelets were further pelleted by centrifugation at 1300 g for 6 minutes. Platelets were washed once with 10 ml ACD containing 1 mg/ml bovine serum albumin. Platelets were resuspended at ˜2.5×10^8/ml in Tyrode's Buffer (137 mM NaCl, 2 mM KCl, 1.0 mM MgCl2, 1 mM CaCl2), 5 mM glucose, 20 mM HEPES pH 7.4).

Structure (SMILES) | IC50 (PAR4) [µM] | other results
CCOC(=O)N[C@@H]1CC[C@@H]2[C@@H](C1)C[C@H]1C(=O)O[C@H](C)[C@H]1[C@H]2/C=C/c1ccc(-c2cccc(F)c2)cn1 [vorapaxar] |  | Cardiovascular events (PAR1): did not significantly reduce; Risk of major bleeding (PAR1): significantly increased
CCOC(=O)c1ccc(-c2nn(Cc3ccccc3)c3ccccc23)cc1 [YD-3, ethyl 4-(1-benzyl-1H-indazol-3-yl)benzoate] |  | Inhibition of PAR4-dependent platelet activation [1]: selective and potent inhibitor
COc1cnc2c(-c3nc4ccc5c(c4s3)CC(CNC(=O)Oc3ccccc3)O5)cc(C)cc2n1 (centres unmarked) [Example 192, Phenyl ((2-(2-methoxy-7-methylquinoxalin-5-yl)-7,8-dihydrobenzofuro[5,4-d]thiazol-7-yl)methy 1)carbamate] | 0.0083 | 
COc1cnc2c(-c3nc4ccc5c(c4s3)C[C@](C)(CO)O5)cc(C)cc2n1 (single isomer, unassigned) [Example 188] | 0.13 | 
C[C@H](N)C(=O)N[C@@H](Cc1ccc(O)cc1)C(=O)N1CCC[C@H]1C(=O)NCC(=O)N[C@@H](CCCCN)C(=O)N[C@@H](Cc1ccccc1)C(=O)O [AYPGKF] |  | EC50 (washed platelets): 12 µM

Now from value to compound, other results behind:

IC50 (PAR4) [µM] | Structure (SMILES) | other results
0.0017 | COc1cnc2c(-c3nc4c(Cl)cc5c(c4s3)OC[C@H](COC(=O)Nc3ccc(-n4cnc(C)n4)nc3)O5)cc(C)cc2n1 [Example 69, (R)-(4-chloro-2-(2-methoxy-7-methylquinoxalin-5-yl)-7,8-dihydro-[1,4]dioxino[2′,3′:3,4]benzo[1,2-d]thiazol-7-yl)methyl (6-(3-methyl-1H-1,2,4-triazol-1-yl)pyridin-3-yl) carbamate] | 
0.039 | COc1ccc(NC(=O)OC[C@H]2COc3c(cc(C(F)F)c4nc(-c5cc(C)cc6nc(OC)cnc56)sc34)O2)cn1 [Example 81, (R)-(4-(difluoromethyl)-2-(2-methoxy-7-methylquinoxalin-5-yl)-7,8-dihydro-[1,4]dioxino[2′,3′:3,4]benzo[1,2-d]thiazol-7-yl)methyl (6-methoxypyridin-3-yl)carbamate] | 
